In brackets after ≈: the same amount, converted by molar mass. Like-named read-outs stand apart in the source and are kept apart here.
Assays:
Experiment in all cases: Minimum Inhibitory Concentration (MIC), agar dilution, standard strains
Type in all cases: cell-based
S. aureus giorgio = settings: for MIC: Staphylococcus aureus, read-out: Minimum Inhibitory Concentration (MIC), S. aureus giorgio
Description: (§1) Minimum Inhibitory Concentration (MIC)
(§2) The effectiveness of the compound according to the present invention was determined by obtaining Minumum Inhibitory Concentration (MIC) of the compounds prepared by the above examples (Compounds I-1˜I-6, I-10) and Vancomycin, which is the known compound having a potent activity against gram-positive strains, as the control drug against the standard strains. Specifically, Minimum Inhibitory Concentration was obtained by diluting the test compounds according to a double dilution method, dispersing them in Mueller-Hinton agar medium, inoculating each of the test strains having 10^7 cfu (colony forming unit) per ml in an amount of 2 μl to the medium and then incubating them at 37° C. for 20 hours. From the results of Minimum Inhibitory Concentration test, it can be seen that the compound according to the present invention has a good activity against major pathogenic microorganisms, which cause hospital infection, including MRSA strains.

S. aureus 77 = settings: for MIC: read-out: Minimum Inhibitory Concentration (MIC), S. aureus 77
Description: as §1, §2

E. faecalis 2168 = settings: for MIC: read-out: Minimum Inhibitory Concentration (MIC), E. faecalis 2168
Description: as §1, §2

S. epidermidis Q033 = settings: for MIC: Staphylococcus epidermidis, read-out: Minimum Inhibitory Concentration (MIC), S. epidermidis Q033
Description: as §1, §2

S. aureus K311 = settings: for MIC: Staphylococcus aureus, read-out: Minimum Inhibitory Concentration (MIC), S. aureus K311
Description: as §1, §2

[1] = Mueller-Hinton agar, double dilution, 37° C. for 20 hours
[2] = Staphylococcus aureus, 77, Mueller-Hinton agar, double dilution, 37° C. for 20 hours
[3] = Enterococcus faecalis, 2168, Mueller-Hinton agar, double dilution, 37° C. for 20 hours
[4] = Q033, Mueller-Hinton agar, double dilution, 37° C. for 20 hours
[5] = K311, Mueller-Hinton agar, double dilution, 37° C. for 20 hours

MIC (S. aureus giorgio; [1]) [µg/mL] | MIC (S. aureus 77; [2]) [µg/mL] | MIC (E. faecalis 2168; [3]) [µg/mL] | MIC (S. epidermidis Q033; [4]) [µg/mL] | MIC (S. aureus K311; [5]) [µg/mL] | SMILES | other results
0.13 (≈ 0.228 µM) | 0.25 (≈ 0.438 µM) | 0.5 (≈ 0.876 µM) | 0.063 (≈ 0.11 µM) | 0.5 (≈ 0.876 µM) | Nc1cc(S/C=C/C2=C(C(=O)O)N3C(=O)[C@@H](NC(=O)C(=NO)c4nc(N)sc4Cl)[C@H]3SC2)nc(O)n1 [Compound I-1, (6R,7R)-7-{[2-(2-amino-5-chloro-1,3-thiazol-4-yl)-2-(hydroxyimino)acetyl]amino}-3-{(E)-2-[(6-amino-2-hydroxy-4-pyrimidinyl)sulfanyl]ethenyl}-8-oxo-5-thia-1-azabicyclo[4.2.0]oct-2-ene-2-carboxylic acid] | –
0.13 (≈ 0.228 µM) | 1 (≈ 1.75 µM) | 1 (≈ 1.75 µM) | 0.063 (≈ 0.111 µM) | 1 (≈ 1.75 µM) | Nc1cc(S/C=C/C2=C(C(=O)O)N3C(=O)[C@@H](NC(=O)C(=NO)c4nc(N)sc4Cl)[C@H]3SC2)nc(N)n1 [Compound I-2, (6R,7R)-7-{[2-(2-amino-5-chloro-1,3-thiazol-4-yl)-2-(hydroxyimino)acetyl]amino}-3-{(E)-2-[(2,6-diamino-4-pyrimidinyl)sulfanyl]ethenyl}-8-oxo-5-thia-1-azabicyclo[4.2.0]oct-2-ene-2-carboxylic acid] | –
0.13 (≈ 0.228 µM) | 0.5 (≈ 0.876 µM) | 0.5 (≈ 0.876 µM) | 0.063 (≈ 0.11 µM) | 0.5 (≈ 0.876 µM) | Nc1nc(O)cc(S/C=C/C2=C(C(=O)O)N3C(=O)[C@@H](NC(=O)C(=NO)c4nc(N)sc4Cl)[C@H]3SC2)n1 [Compound I-3, (6R,7R)-7-{[2-(2-amino-5-chloro-1,3-thiazol-4-yl)-2-(hydroxyimino)acetyl]amino}-3-{(E)-2-[(2-amino-6-hydroxy-4-pyrimidinyl)sulfanyl]ethenyl}-8-oxo-5-thia-1-azabicyclo[4.2.0]oct-2-ene-2-carboxylic acid] | –
0.25 (≈ 0.406 µM) | 1 (≈ 1.63 µM) | 1 (≈ 1.63 µM) | 0.13 (≈ 0.211 µM) | 2 (≈ 3.25 µM) | NCCSc1nccc(S/C=C/C2=C(C(=O)O)N3C(=O)[C@@H](NC(=O)C(=NO)c4nc(N)sc4Cl)[C@H]3SC2)n1 [Compound I-4, (6R,7R)-7-{[2-(2-amino-5-chloro-1,3-thiazol-4-yl)-2-(hydroxyimino)acetyl]amino}-3-{(E)-2-({2-[(2-aminoethyl)sulfanyl]-4-pyrimidinyl}sulfanyl)ethenyl}-8-oxo-5-thia-1-azabicyclo[4.2.0]oct-2-ene-2-carboxylic acid] | –
– | – | – | – | – | Cc1cc(S/C=C/C2=C(C(=O)O)N3C(=O)[C@@H](NC(=O)C(=NO)c4nc(N)sc4Cl)[C@H]3SC2)nc(SCCN)n1 [Compound I-5] | Minimum Inhibitory Concentration (MIC), S. aureus giorgio (S. aureus giorgio; [1]): 0.25 µg/mL; Minimum Inhibitory Concentration (MIC), S. aureus 77 (S. aureus 77; [1]): 1 µg/mL; Minimum Inhibitory Concentration (MIC), E. faecalis 2168 (E. faecalis 2168; [1]): 0.25 µg/mL; Minimum Inhibitory Concentration (MIC), S. epidermidis Q033 (S. epidermidis Q033; [1]): 0.13 µg/mL; Minimum Inhibitory Concentration (MIC), S. aureus K311 (S. aureus K311; [1]): 2 µg/mL
0.13 (≈ 0.218 µM) | 0.5 (≈ 0.84 µM) | 0.5 (≈ 0.84 µM) | 0.031 (≈ 0.0521 µM) | 0.5 (≈ 0.84 µM) | Nc1nc(C(=NO)C(=O)N[C@@H]2C(=O)N3C(C(=O)O)=C(/C=C/Sc4nc(N)c5cn[nH]c5n4)CS[C@H]23)c(Cl)s1 [Compound I-6, (6R,7R)-7-{[2-(2-amino-5-chloro-1,3-thiazol-4-yl)-2-(hydroxyimino)acetyl]amino}-3-{(E)-2-[(4-amino-1H-pyrazolo[3,4-d]pyrimidin-6-yl)sulfanyl]ethenyl}-8-oxo-5-thia-1-azabicyclo[4.2.0]oct-2-ene-2-carboxylic acid] | –
0.5 (≈ 0.784 µM) | 2 (≈ 3.13 µM) | 4 (≈ 6.27 µM) | 0.063 (≈ 0.0987 µM) | 2 (≈ 3.13 µM) | Nc1cc(S/C=C/C2=C(C(=O)O)N3C(=O)[C@@H](NC(=O)C(=NOC4CCCC4)c4nc(N)sc4Cl)[C@H]3SC2)nc(N)n1 [Compound I-10, (6R,7R)-7-({2-(2-amino-5-chloro-1,3-thiazol-4-yl)-2-[(cyclopentyloxy)imino]acetyl}amino)-3-{(E)-2-[(2,6-diamino-4-pyrimidinyl)sulfanyl]ethenyl}-8-oxo-5-thia-1-azabicyclo[4.2.0]oct-2-ene-2-carboxylic acid] | –
– | – | – | – | – | CN[C@H](CC(C)C)C(=O)N[C@H]1C(=O)N[C@@H](CC(N)=O)C(=O)N[C@H]2C(=O)N[C@H]3C(=O)N[C@H](C(=O)N[C@H](C(=O)O)c4cc(O)cc(O)c4-c4cc3ccc4O)[C@H](O)c3ccc(c(Cl)c3)Oc3cc2cc(c3O[C@@H]2O[C@H](CO)[C@@H](O)[C@H](O)[C@H]2O[C@H]2C[C@](C)(N)[C@H](O)[C@H](C)O2)Oc2ccc(cc2Cl)[C@H]1O [Vancomycin, reference compound] | MIC (S. aureus giorgio; 20 h): 1 µg/mL (≈ 0.69 µM); MIC (S. aureus 77; Staphylococcus aureus, 77, 20 h): 1 µg/mL (≈ 0.69 µM); MIC (E. faecalis 2168; Enterococcus faecalis, 2168, 20 h): > 64 µg/mL; MIC (S. epidermidis Q033; Q033, 20 h): 1 µg/mL (≈ 0.69 µM); MIC (S. aureus K311; K311, 20 h): 2 µg/mL (≈ 1.38 µM)
